The values that follow come from US9598426B2, “Organic compounds” (INTRA-CELLULAR THERAPIES, INC., priority 2013, dated 2017).

Experiment [1] relates to rats. The experiment is described as follows: Novel Object Recognition (NOR) assay. To be noted: PO, administered to a rat 2 hours before T1 (acquisition); 24 h interval. It is filed as in vivo. An excerpt: Novel Object Recognition Assay
To measure the cognition-enhancing effects of the compounds of the invention, the candidate compounds may be evaluated in a Novel Object Recognition (NOR) assay. This assay protocol is described in detail in Ennaceur et al., Behav. Brain Res. (1988) 31:47-59 and Prickaerts et al., Eur. J. Pharmacol. (1997) 337:125-136, the contents of each of which are incorporated by reference in their entirety. In this protocol, the rats are introduced to a chamber at time T1 and allowed to interrogate two identical “familiar objects” for six minutes. Twenty-four hours later, they are re-introduced to this chamber, where one of the familiar objects has been replaced with a novel object. The “discrimination index”, a measure of the time spent in close proximity to the novel over the familiar object, may then be measured. Since rodents will forget the original experiment at T1 within 4 hours, this test with a 24 h interval is a measure of strong cognitive enhancement.
This assay protocol can be modified in order to evaluate different phases of memory. There are three general phases of memory, namely, acquisition, consolidation and retrieval. In this modified protocol, the rats may be dosed with the candidate compound two hours before T1 and tested 24 h later without additional dosing. This is a test of the acquisition process. […]

Experiment [2] relates to C57BL/6 mice. The experiment is described as follows: Haloperidol induced catalepsy model (bar grip test, step down latency). It is filed as in vivo, mouse. To be noted: haloperidol 3 mg/Kg PO, male C57BL/6 mice, compound PO. An excerpt:
Haloperidol Induced Catalepsy Model
To evaluate the potential beneficial effects to motor defects present in schizophrenics treated with typical and atypical antipsychotic agents and in Parkinson's disease patients, the compounds of the invention may be tested in a reversal of catalepsy model in which motor freezing, or catalepsy, is induced by potent dopamine D2 receptor antagonists such as haloperidol or risperidone. The method uses the “bar grip test”, in which the front paws of the mouse are placed so as to grip a 3 mm-diameter, suspended wooden bar. A “step down latency” is measured by recording the time until the mouse removes its paws from the wooden bar to the floor surface. Catalepsy is a freezing of the musculature that prevents the mouse from moving off the bar. […]
A catalepsy score is recorded for each mouse at 2, 3, 4, and 6 hours after administration of drugs. […] The latency until the mouse steps both paws down from the bar to the floor surface (i.e., step down latency) is recorded up to 120 sec. […] If none of the 10 attempts are beyond 10 sec, the longest duration recorded is used as the catalepsy score. Otherwise, the initial cataleptic duration (>10 sec) is recorded during the 120 sec testing time. Mean step down latency is calculated for each treatment group.

For the compound `CC(=O)c1ccc(Cn2nc3c(c2Nc2ccc(F)cc2)C(=O)N(C)C2=NC(C)(C)CN23)cc1` [Example 1, 7,8-Dihydro-2-(4-acetylbenzyl)-3-(4-fluorophenylamino)-5,7,7-trimethyl-[2H]-imidazo-[1,2-a]pyrazolo[4,3-e]pyrimidin-4(5H)-one], the minimal effective dose in experiment [1] and in experiment [2] was 0.1 mg/kg each time.
